In US5168102A, “Endocrine manipulation to improve body composition of poultry” (priority 1990, dated 1992):
“Also recorded” adds a separate entry of the source. Where two headings read alike, the source gives them in different places.

Experiments:
[1] = From the text: Referring now to broiler chickens as a benchmark for the beneficial effects of this invention, it must be noted that these chickens grow from a weight of 30 to 50 grams at hatching to about 1.5-3 or even as much as 5 kilograms of body weight at market age. Of this market weight, 15-20 wt.-% is protein, 2-3 wt.-% is inorganic (showing up as ash in proximate analysis of body composition), and more than 10 wt.-% (e.g. 10-20 wt.-%) is fat, which means that the protein:fat ratio (by weight) is likely to be at or below 1.5:1 and certainly well below 2:1.
[2] = Example 3: plasma hormone levels (RIA); format: in vivo, broiler cockerels
Method: Day-old broiler cockerels were randomly assigned to 24 pens (5 birds/pen) in a battery brooder. The total duration of the bird management period lasted from 7 to 8 weeks. […] 3, four birds from each pen were transferred to wire grow-out cages. […] Body weight and feed consumption were determined at weekly intervals. A 5 ml blood sample was obtained from each bird at week no. 7 and stored at -20° C. until assayed for plasma hormones.
Equilibrium, double antibodies radioimmunoassays (RIA) were used to determine plasma levels of chicken growth hormone (GH) according to Proudman, Proc. Soc. […] Plasma insulin was quantified by using nonequilibrium RIA described by McMurtry et al., Poult. […] Plasma level of insulin-like growth factor-I (IGF-I) was determined by heterologous RIA in accordance with McGuinness.

[3] = Example 1: growth and feed efficiency of broiler cockerels fed thyroid-active substances with or without daily ncGH injection; format: in vivo, broiler cockerels (Ross X Arbor Acre strain)
From the text: (§1) The purpose of this study was to determine the effect manipulating blood levels of thyroid hormones and/or growth hormone on growth performance and body composition of broiler chickens. […] Purified natural chicken growth hormone (ncGH) was obtained from the Research and Education Center, Harbor-UCLA Medical Center, Torrance, Calif. […] The premix (200 g) was then used to prepare 50 kg batches of each experimental diet according to the formula for broiler-finisher ration described in Table 1. The diet containing 0.5% PTU was prepared by mixing 250 g of PTU into 49.75 kg of the basal ration (Table 1).
(§2) Broiler cockerels (Ross X Arbor Acre strain) were raised to 3 weeks-of-age in a battery-brooder and then transferred to wire grow-out cages (4 birds/pen) held in two controlled-environment rooms (10 pens/room). Beginning at 3 weeks of age, eight birds (2 pens of 4 birds) were randomly assigned to each of 10 treatments. The chickens were provided the experimental diets and water ad libitum. […] For injection, the ncGH was reconstituted in sterile 0.025M sodium bicarbonate buffer (pH 9.8). The 10 treatments were administered for 21 days (i.e., from 3 to 6 weeks of age).
(§3) Measurement of body weight and feed consumption at weekly intervals allowed calculation of the average daily gain (ADG, g/bird/day), average daily feed consumption (ADFC, g/bird/day) and the feed-to-gain ratio (FIG, kg feed/kg gain) over the 21 day experimental period. Blood samples were taken each week (4, 5, and 6 weeks) just before (pre-injection) and 4 hours post-injection of ncGH. […] At the conclusion of the study, birds were killed and the carcasses frozen for proximate analysis. The frozen carcasses were ground in a meat grinder and aliquots of each ground carcass taken for determination of moisture, protein, fat and ash by established analytical procedures (Official Method of Analysis, Edition 13, W. Horwitz ed., Association of Official Analytical Chemist, Washington, D.C., 1980). Body composition data are presented as a percent of live weight at 6 weeks-of-age. Least squares regression analysis was used to test for significant differences (P<0.05) due treatment.

[4] = 0.25 to 1 ppm in feed throughout entire growth cycle; cited from earlier work
[5] = Example 2: final body weight, liver, abdominal fat and body composition; format: in vivo, broiler cockerels (Ross X Arbor Acre)
Method: (§4) Forty-eight 3-week-old broiler cockerels (Ross X Arbor Acre) were randomly divided into four treatment groups that contained three pens of four birds. The birds were housed in a controlled-environment room under a 20 hour light/4 hour dark cycle with feed and water provided ad libitum.
(§5) The preparation of ncGH used in this study was from the same lot used in Example 1.
(§6) Body weights and feed consumption was determined at weekly intervals although the ADG, ADFC and FTG ratio was determined over the 21 day period. […] At the conclusion of the study (6 weeks-of-age), birds were killed and the abdominal fat removed and weighed. The liver and abdominal fat were returned to the carcass which was frozen for proximate analysis as described in […]

[6] = supplemented diets; cited from earlier work
receptor = conditions: cited from earlier work
[7] = Example 1: plasma hormone concentrations (radioimmunoassays)
From the text: as §1, §2, §3

[8] = Example 2: growth and feed efficiency, dietary T3 and ncGH injection; format: in vivo, broiler cockerels (Ross X Arbor Acre)
Method: as §4, §5, §6

N[C@@H](Cc1cc(I)c(Oc2ccc(O)c(I)c2)c(I)c1)C(=O)O [T3, 3,3',5-triiodo-L-thyronine]
effect on weight gain ([1]; 0.1 ppm): no significant adverse effect upon weight gain can be detected
protein content of the carcass relative to fat content ([1]; 0.1 ppm): improved relative to fat content
effect on growth rate ([1]; 0.25 ppm): virtually no statistically significant adverse effect on growth rate
effect on weight gain ([1]; 1 ppm): some deviation from normal weight gain is observed
glucagon secretion, increase ([2]; 0.25 ppm): 16%
plasma T3 level, fold elevation ([2]; 0.25 ppm): 2.1 fold
plasma insulin, reduction ([2]; 0.25 ppm): 27%
I/G ratio, reduction ([2]; 0.25 ppm (p<0.05)): 31%
I/G Ratio (molar) ([2]; 0.25 ppm of feed): 0.81 ± .20
plasma GH ([2]; 0.25 ppm of feed): 2.0 ± 0.4 ng/mL
plasma Glucagon ([2]; 0.25 ppm of feed): 656 ± 75 pg/mL
plasma IGF-I ([2]; 0.25 ppm of feed): 100.7 ± 2.9 ng eg/ml
plasma Insulin ([2]; 0.25 ppm of feed): 772 ± 155 pg/mL
plasma T4 ([2]; 0.25 ppm of feed): 6.3 ± 0.6 ng/mL
effect on plasma IGF-1 level ([2]; 0.25 to 4.0 ppm): only reduced (p<0.05) by the 4.0 ppm level
I/G molar ratio, reduction ([2]; 1 or 4 ppm (p<0.05)): 70-76%
glucagon secretion, increase ([2]; 1.0 ppm (p<0.05)): 44%
plasma insulin, reduction ([2]; 1.0 ppm (p<0.05)): 60%
I/G Ratio (molar) ([2]; 1.0 ppm of feed): 0.35 ± .06
plasma GH ([2]; 1.0 ppm of feed): 2.1 ± 0.4 ng/mL
plasma Glucagon ([2]; 1.0 ppm of feed): 816 ± 64 pg/mL
plasma IGF-I ([2]; 1.0 ppm of feed): 97.7 ± 6.3 ng eg/ml
plasma Insulin ([2]; 1.0 ppm of feed): 426 ± 65 pg/mL
plasma T4 ([2]; 1.0 ppm of feed): 6.2 ± 0.6 ng/mL
plasma T3 level, fold elevation ([2]; 4 ppm): 12.6 fold
glucagon secretion, increase ([2]; 4.0 ppm (p<0.05)): 46%
plasma insulin, reduction ([2]; 4.0 ppm (p<0.05)): 68%
Plasma T3 level (control group = 100% of normal) ([2]; 4 ppm in feed): ~ 1254%
I/G Ratio (molar) ([2]; 4.0 ppm of feed): 0.28 ± .08
plasma GH ([2]; 4.0 ppm of feed): 1.8 ± 0.2 ng/mL
plasma Glucagon ([2]; 4.0 ppm of feed): 824 ± 61 pg/mL
plasma IGF-I ([2]; 4.0 ppm of feed): 58.8 ± 8.2 ng eg/ml
plasma Insulin ([2]; 4.0 ppm of feed): 344 ± 92 pg/mL
plasma T4 ([2]; 4.0 ppm of feed): 5.1 ± 0.8 ng/mL
effect on plasma GH levels ([2]; all dietary T3 levels): decreased (p<0.05); also recorded: decrease plasma GH levels
plasma T4 level, decrease ([2]; regardless of dose level (p<0.05)): 67%
BW (body weight) ([3]; 1 ppm T3, 1 ppm T4, 5 ppm TRH or 0.5% PTU in feed, 3 to 6 weeks of age, Group 1, mean ±SEM): 1.70 ± .09 kg
effect on growth rate and feed efficiency ([3]; Group 1, dietary): did not affect growth rate or feed efficiency
ADFC (average daily feed consumption) ([3]; Group 1, dietary, 21 days): 101.1 ± 5.2 g/bird/day
ADG (average daily weight gain) ([3]; Group 1, dietary, 21 days): 48.8 ± 4.3 g/bird/day
FTG (feed-to-gain ratio) ([3]; Group 1, dietary, 21 days): 2.08 ± .08 kg feed/kg gain
body weight gain, feed efficiency / growth performance [4]: reduced body weight gain and feed efficiency
body fat content (% BW), reduction ([5]; 1 ppm T3, with or without ncGH): 16%
abdominal fat content, reduction ([5]; 1 ppm T3, with or without ncGH (P<0.05)): 28%
Body Weight (BW), final ([5]; 1 ppm T3 and/or ncGH 100 μg/kg/day, 6 weeks-of-age, N = 12): 1.86 ± .048 kg
Abdominal Fat, relative weight ([5]; N = 12): 1.86 ± .396 % BW
Body composition: Ash ([5]; N = 12): 2.40 ± .054 % BW
Body composition: Fat ([5]; N = 12): 13.2 ± .62 % BW
Body composition: Protein ([5]; N = 12): 17.3 ± .36 % BW
Body composition: Water ([5]; N = 12): 65.5 ± .60 % BW
Liver, relative weight ([5]; N = 12): 2.54 ± .096 % BW
effect on body water and ash contents ([5]; in vivo): increased
depressed growth rate in dwarf strains [6]: restored to normal
metabolic activity of thyroid hormones (receptor): most active compounds of formula I
I/G Molar Ratio ([7]; Group 1, dietary, N = 24): 0.51
plasma Glucagon (G) ([7]; Group 1, dietary, N = 24): 491 pg/mL
plasma Insulin (I) ([7]; Group 1, dietary, N = 24): 409 pg/mL
effect on insulin and glucagon secretion ([7]; dietary T3 / elevated plasma T3): inhibit insulin secretion whereas glucagon secretion is enhanced; also recorded: depresses insulin secretion while glucagon secretion is increased
plasma I/G molar ratio, fold lower ([7]; vs CF birds (P<0.05)): 4.3 times
plasma GH level, reduction ([7]; vs CF treatment): 32%
plasma T4 level, reduction ([7]; vs average of CF and TRH treatments (P<0.05)): 58%
ADFC ([8]; 1 ppm T3 and/or ncGH 100 μg/kg/day, 21 days): 117.9 ± 0.8 g/bird/day
ADG ([8]; 1 ppm T3 in feed and/or ncGH 100 μg/kg/day i.m., 3 to 6 weeks, mean ±SEM of 3 pens): 52.6 ± 1.0 g/bird/day
effect on ADG, ADFC and FTG ratio ([8]; 21 days): not affected
